# Assay results reported in patent US10758517B2, “mPGES-1 inhibitor for the treatment of osteoarthritis pain” (Glenmark Pharmaceuticals S.A., priority 2017, dated 2020).
# Marks after values point to notes of the source that are not given here.
# Test system: LPS-induced PGE2 release
# Test: Ex vivo LPS-induced PGE2 release in whole blood, single dose crossover versus celecoxib (Example 1, Part 3)
# Parameters: species or system human
# Conditions: single oral dose 400 mg, fasted healthy subjects
# Procedure: Part 2 was a single-dose, double-blind study in a single cohort of elderly subjects. Part 3 was an open-label, randomized, 2-period, single-dose, crossover study to compare effects of the highest tolerated Compound I dose and celecoxib on prostanoid metabolism in healthy adult subjects.
# In Part 3, Compound I was administered at a dose of 1000 mg after fasting. All subjects received Compound I and all subjects received 400 mg celecoxib in a cross-over study design.
# In Parts 1a and 3, whole blood samples were incubated and analyzed for lipopolysaccharide (LPS)-induced prostaglandin PGE2 release. In Part 3, urine samples were collected for analysis of prostanoid metabolites.
# Summary statistics were presented for the PK, pharmacodynamic (PD) and safety data, as appropriate. PK parameters following single oral doses of Compound I were determined from the plasma concentrations of Compound I using non-compartmental procedures in WinNonlin Dose proportionality was assessed using a power model, with tmax analyzed using the Kruskal-Wallis test. The effect of food on PK was assessed at the 100 and 250 mg doses using a mixed effects model. The effect of age on PK was assessed for elderly (>65 years) versus non-elderly (<65 years) at the 250 mg dose level in Parts 1a and 2, using an analysis of variance (ANOVA) with age as a fixed effect. For PD analyses, percent decrease of ex vivo LPS-induced PGE2 release was calculated. For Part 3, urinary excretion of prostanoid metabolites was also evaluated. The data are presented as absolute, as well as creatinine normalized urinary biomarker amounts, along percent change from baseline over a definite time interval. The percent change from baseline in urinary biomarkers was assessed using an analysis of covariance (ANCOVA) model
# Percent change in ex vivo LPS-induced PGE2 release in whole blood is the pharmacodynamic (PD) biomarker. The PGE2 levels in whole blood were estimated using the homogeneous time-resolved fluorescence method.
# Concentrations below the limit of quantification were treated as ½ the lower limit of quantification for calculation.
# Time points where unstimulated prostaglandin E2 (PGE2) concentration was more than 3 times greater than the mean unstimulated PGE2 and equal to or greater than ½ baseline value for an individual subject were not included in the calculation of % inhibition.
smiles,measurement,setting,value
"Cc1ccc(-c2cc(C(F)(F)F)nn2-c2ccc(S(N)(=O)=O)cc2)cc1 [Celecoxib, celecoxib, reference compound]","EAUC0-24 h, LS mean",,1421 % · h
same,"ETmax (time to reach maximum effect), Median",,6.00 h
same,"Epeak (maximum % inhibition), LS mean",,89.1%
same,"EAUC0-336 h, LS mean",N = 18,−10159^a % · h
